The results in this text go back to ChEMBL document CHEMBL1201862, “PubChem BioAssay data set” (2004).

Assay in all cases: NCI anticancer screen, dose series, 48 h
Assay [1] has as its system 786-0.
Assay [2] has as its system DU-145.
Assay [3] concerns HCC 2998.
Assay [4] has as its system HCT-15.
Assay [5] deals with HT-29.
Assay [6] deals with M14.
Assay [7] has as its system NCI-H226.
The subject of assay [8] is NCI-H460.
The subject of assay [9] is OVCAR-3.
The test system of assay [10] is OVCAR-4.
For assay [11], the system named is OVCAR-5.
For assay [12], the system named is OVCAR-8.
The subject of assay [13] is SF-268.
For assay [14], the system named is SR.
The test system of assay [15] is U-251.
Assay [16] has as its system UACC-62.
The subject of assay [17] is UO-31.
Assay [18] relates to HL-60.
Assay [19] deals with NCI-H522.

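48-hour exposure; five concentrations; linearly interpolated endpoints. GI50 is the concentration that inhibits growth by half.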 The source made the active and inactive calls. Rule as the data show it: active = GI50 up to about 1.1 µM and inactive = higher.

Turning to `N#Cc1nnc2ccccc2c1N`, the GI50 in assay [1] was > 100 µM (inactive); in assay [2], > 100 µM (inactive); in [3], > 100 µM (inactive); in [4], > 100 µM; in assay [5] it was > 100 µM (inactive); in assay [6], > 100 µM (inactive). Besides, the GI50 in assay [7] was > 100 µM (inactive); in assay [8], > 100 µM (inactive); in assay [9], 2.26 µM (inactive); in assay [10], > 100 µM (inactive); in assay [11], > 100 µM (inactive); in assay [12], > 100 µM (inactive). For the same compound, the GI50 in assay [13], in [14], in assay [15], in [16] and in assay [17] was > 100 µM (inactive) each time.
Take `CN(C)c1ccc(/C=C2\N=C(c3ccccc3)N(c3nc4c(Cl)cc(Cl)cc4s3)C2=O)cc1`: the GI50 in assay [1] was 77.1 µM (inactive); in [2], > 100 µM (inactive); in [3] it was 45.2 µM (inactive); in [4], 43.6 µM; in assay [18], 24.9 µM (inactive); in assay [5], 38.4 µM (inactive). In addition, the GI50 in assay [6] is 75.7 µM (inactive); in [8] it was 27.7 µM (inactive); in assay [9] it was 64.4 µM (inactive); in assay [10], 39.2 µM (inactive); in assay [11], 57.9 µM (inactive); in [12] it was 61.9 µM (inactive). Moreover, the GI50 was 48.6 µM (inactive) in assay [13]; 32.1 µM (inactive) in assay [14]; 55.3 µM (inactive) in assay [15]; 33.1 µM (inactive) in assay [16]; 43.8 µM (inactive) in assay [17].
Regarding `O=C(Nc1ccccc1Cl)c1cc(S(=O)(=O)Nc2n[nH]c(=O)n2-c2ccccc2)c(S)cc1Cl`, the GI50 in [1] is > 100 µM (inactive); in assay [2], > 100 µM (inactive); in assay [3] it was > 100 µM (inactive); in assay [4] it was > 100 µM; in assay [18] it was > 100 µM (inactive); in assay [5], > 100 µM (inactive). For the same compound, the GI50 in [6], in assay [7], in [8], in assay [9], in assay [10] and in assay [11] was > 100 µM (inactive) each time. Besides, the GI50 in assay [12], in assay [13], in assay [14], in assay [15], in assay [16] and in assay [17] was > 100 µM (inactive) in each case.
On to `O=S(=O)(O)c1cc(O)c(/N=N\C2S(=O)(=O)OCCOS2(=O)=O)c2ccccc12`, for which the GI50 in assay [1] was 61.9 µM (inactive); in assay [2] it was > 100 µM (inactive); in assay [3] it was > 100 µM (inactive); in assay [4], > 100 µM; in assay [18], 22.2 µM (inactive); in assay [5], > 100 µM (inactive). Further, the GI50 in assay [6] was > 100 µM (inactive); in assay [7], > 100 µM (inactive); in assay [8], 23.4 µM (inactive); in [19], > 100 µM (inactive); in assay [9], > 100 µM (inactive); in assay [10], > 100 µM (inactive). Further, the GI50 in [11] was > 100 µM (inactive); in assay [12], > 100 µM (inactive); in assay [13], > 100 µM (inactive); in [15], 71.8 µM (inactive); in [16] it was 91 µM (inactive); in assay [17], > 100 µM (inactive).
`CC(C)(C)N/C(N)=N/C#N`: the GI50 in [1] was > 100 µM (inactive); in assay [2] it was > 100 µM (inactive); in [3] it was > 100 µM (inactive); in assay [4], > 100 µM; in assay [18], > 100 µM (inactive); in [5], > 100 µM (inactive). The GI50 in assay [6], in assay [8], in [10], in assay [11], in assay [12] and in [13] was > 100 µM (inactive) each time. Besides, the GI50 in assay [14], in assay [15], in assay [16] and in assay [17] was > 100 µM (inactive) throughout.
As for `N=c1oc2ccccc2cc1C(=O)Nc1ccccn1`, the GI50 in assay [1] is 37.8 µM (inactive); in assay [2], > 100 µM (inactive); in [3], > 100 µM (inactive); in assay [4], 75 µM; in assay [18], > 100 µM (inactive); in assay [5], > 100 µM (inactive). In addition, the GI50 in [6] was > 100 µM (inactive); in assay [7] it was > 100 µM (inactive); in [8], 95.9 µM (inactive); in assay [9], > 100 µM (inactive); in assay [10], > 100 µM (inactive); in [11] it was > 100 µM (inactive). The GI50 was > 100 µM (inactive) in [12]; > 100 µM (inactive) in [13]; 86.7 µM (inactive) in assay [14]; > 100 µM (inactive) in [15]; 58.6 µM (inactive) in assay [16].
Turning to `CSc1ncc2c(C#N)c3sc4ccccc4n3c(=O)c2n1`, the GI50 is 41.8 µM (inactive) in [1]; > 100 µM (inactive) in assay [2]; > 100 µM (inactive) in [3]; 80.4 µM in [4]; > 100 µM (inactive) in assay [18]; > 100 µM (inactive) in assay [5]. In addition, the GI50 in [6] is > 100 µM (inactive); in assay [7], 26.1 µM (inactive); in assay [8] it was 22.4 µM (inactive); in [9] it was > 100 µM (inactive); in assay [10], 45.8 µM (inactive); in assay [11], > 100 µM (inactive). In addition, the GI50 in assay [12] was 26.1 µM (inactive); in assay [13] it was 16.1 µM (inactive); in [14], 19.6 µM (inactive); in assay [15], 24 µM (inactive); in assay [16] it was > 100 µM (inactive); in assay [17] it was > 100 µM (inactive).
For the compound `O=C(Cn1c(C(=O)/C=C/c2ccc(Cl)c(Cl)c2)nc2ccccc21)c1ccccc1`, the GI50 was 18.8 µM (inactive) in assay [1]; 32.9 µM (inactive) in assay [2]; 17.8 µM (inactive) in [3]; 25.2 µM in assay [4]; 15.6 µM (inactive) in assay [18]; 16 µM (inactive) in assay [5]. The GI50 in [6] is 23.2 µM (inactive); in assay [7] it was 31.7 µM (inactive); in [8], 16.2 µM (inactive); in [9], 15.2 µM (inactive); in assay [10] it was 25.6 µM (inactive); in [11], 17.6 µM (inactive). For the same compound, the GI50 is 45.4 µM (inactive) in assay [13]; 25 µM (inactive) in assay [14]; 26.8 µM (inactive) in [15]; 31 µM (inactive) in [16]; 24.8 µM (inactive) in [17].
